Values quoted from earlier work in patent publication US6187343A, “Proceeding for the preparation of the prolonged action granule compound containing 4-nitro-2-phenoxymethanesulfonanilide” (priority 1997, dated 2001).

Conditions: in vivo

Compound: CS(=O)(=O)Nc1ccc([N+](=O)[O-])cc1Oc1ccccc1 [NIMESULIDE, 4-nitro-2-phenoxymethanesulfonanilide]
- adverse effects: adverse effects of the digestive type
